“Also recorded” adds a separate entry of the source. Read-outs that look alike come from different tables or passages of the source.
Assays:
[1] = tested on: HCT116 human colon carcinoma cell line; experiment: In vitro cytotoxicity in HCT116 (XTT assay); format: cell-based; conditions: for IC50: Homo sapiens
Protocol: (§1) Eleutherobin and the above described analogs are useful as cytotoxic agents. The compounds are used in the same manner as other known cytotoxic agents. They may be used alone or in combination with suitable pharmaceutical carriers and other bioactive materials. They are used both in vitro and in vivo to kill a wide variety of cell types. […] For example, in vitro toxicity of eleutherobin was tested in the HCT116 human colon carcinoma cell line and a multidrug resistant subline, HCT116/VM46, which overexpresses P-glycoprotein and is over 100-fold resistant to taxol. […] The cytotoxicity of eleutherobin was also tested in a human ovarian carcinoma cell line A2780. Eleutherobin was also found to be cytotoxic with respect to the A2780 cell line.
(§2) ^1 Cytotoxicity was determined after 72 hour exposure by XTT assay.

[2] = tested on: HCT116/VM46 human colon carcinoma subline, which overexpresses P-glycoprotein; experiment: In vitro cytotoxicity in multidrug resistant subline HCT116/VM46 (XTT assay); format: cell-based; conditions: for fold resistance relative to corresponding parent cell line: HCT116/VM46 relative to HCT116, 4320 min; for IC50: Homo sapiens, HCT-116/VM46, HCT116/VM46, 72 hour exposure, XTT assay
Protocol: as §1, §2
^2 Value in parenthesis is fold resistance relative to corresponding

[3] = tested on: human ovarian carcinoma cell line A2780; experiment: In vitro cytotoxicity in A2780 (XTT assay); format: cell-based; conditions: for IC50: Homo sapiens
Protocol: as §1, §2

[4] = tested on: cancer cells; experiment: Cytotoxicity, general statement; format: cell-based; conditions: in words
[5] = in words, background art; cited from earlier work

In the case of `CO[C@]12C=C[C@](C)(O1)[C@@H](OC(=O)/C=C/c1cn(C)cn1)C[C@H]1C(C)=CC[C@H](C(C)C)[C@H]1/C=C\2COC1OCC(O)C(O)C1OC(C)=O` (some centres unmarked) [Eleutherobin], the IC50 ([1]; HCT-116, 72 h) is reported as 10.7 nM, the “cytotoxicity in the HCT116 cell line compared with taxol” value ([1]; in words, HCT116) is reported as “nearly as cytotoxic as taxol” and the “fold resistance relative to corresponding parent cell line” value [2] is reported as 52 fold. For the same compound, the IC50 [2] was 554 nM, the IC50 ([3]; A2780, 72 h) was 13.7 nM and the “cytotoxicity with respect to the A2780 cell line” value ([3]; in words, A2780) was “cytotoxic”. The cytotoxicity [4] was “effective cytotoxin; also recorded: cytotoxic with respect to cancer cells”.

For `CC1=CC(=O)[C@H](C(C)C)[C@H]2/C=C(/C)[C@@]3(O)C=C[C@](C)(O3)[C@@H](OC(=O)Cc3ccccc3)C[C@@H]12` [Valdivone B], the anti-inflammatory activity [5] is listed as “anti-inflammatory activity”.

In the case of `CC(C)=CC(=O)O[C@H]1C[C@H]2C(C)=CC(=O)[C@H](C(C)C)[C@H]2/C=C(/C)[C@@]2(O)C=C[C@]1(C)O2` [Valdivone A], the anti-inflammatory activity [5] is listed as “anti-inflammatory activity”.

With `CC(=O)O[C@H]1C(=O)[C@@]2(C)[C@H]([C@H](OC(=O)c3ccccc3)[C@]3(O)C[C@H](OC(=O)[C@H](O)[C@@H](NC(=O)c4ccccc4)c4ccccc4)C(C)=C1C3(C)C)[C@]1(OC(C)=O)CO[C@@H]1C[C@@H]2O` [paclitaxel (taxol), paclitaxel] the IC50 ([1]; HCT-116, HCT116, 72 hour exposure, XTT assay, read-out: IC50) was 4.6 nM, the “fold resistance relative to corresponding parent cell line” value [2] was 117 fold and the “fold resistance relative to corresponding parent cell line” value ([2]; listed as taxol) was “over 100 fold”. It also gave an IC50 [2] of 5.37 nM and an IC50 ([3]; A2780, 72 hour exposure, XTT assay, read-out: IC50) of 6.7 nM.

Reference: patent US5473057A, “Eleutherobin and analogs thereof” (The Regents of the University of California, priority 1994, dated 1995)
